Data taken from ChEMBL document CHEMBL3639068, “Small molecule inhibitors of Plasmodium falciparum dihydroorotate dehydrogenase” (2014).

Tests used:
[1] = molecular target: T1, Dihydroorotate dehydrogenase, mitochondrial, putative (Plasmodium vivax (strain Salvador I), UniProt A5K1N1); assay: (§1) Enzymatic Assays: Type 2 DHODH activity was monitored with either the direct assay measuring the formation of orotate or via a chromogen reduction assay using DCIP. Although the extinction coefficient and absorption wavelength are preferable for the chromogen reduction assay, the […] electron acceptor DCIP can be utilized by DHODH as the final electron acceptor in lieu of CoQn when the endogenous substrate is at a low concentration. As such, the direct assay was used to measure the binding affinity of pfDHODH to CoQD and L-DHO. The enzymatic reaction was performed by varying the L-DHO concentration (1-400 μM) or CoQD concentration (1-200 μM) while keeping the other substrate constant and in excess. Inhibition of DHODH by small molecules was evaluated using the chromogen based assay with a final substrate concentration of 200 μM L-DHO, 18 μM CoQD, and 100 μM DCIP, unless otherwise noted.
T1 sequence (A5K1N1 whole entry): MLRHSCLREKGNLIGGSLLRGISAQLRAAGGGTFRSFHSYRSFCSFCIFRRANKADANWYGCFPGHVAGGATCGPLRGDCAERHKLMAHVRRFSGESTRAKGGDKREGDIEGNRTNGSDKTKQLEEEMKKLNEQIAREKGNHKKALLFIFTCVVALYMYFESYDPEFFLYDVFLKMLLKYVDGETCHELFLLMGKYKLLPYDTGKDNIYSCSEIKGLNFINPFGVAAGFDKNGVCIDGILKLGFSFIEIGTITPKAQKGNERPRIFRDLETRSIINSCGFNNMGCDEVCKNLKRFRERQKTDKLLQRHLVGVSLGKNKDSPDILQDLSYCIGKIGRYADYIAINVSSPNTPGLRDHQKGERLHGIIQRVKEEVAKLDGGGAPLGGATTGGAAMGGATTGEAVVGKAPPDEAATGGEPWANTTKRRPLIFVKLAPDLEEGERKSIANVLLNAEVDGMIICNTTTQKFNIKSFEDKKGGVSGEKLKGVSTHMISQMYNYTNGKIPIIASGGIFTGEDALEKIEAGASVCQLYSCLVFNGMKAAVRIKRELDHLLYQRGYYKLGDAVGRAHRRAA

[2] = molecular target: Dihydroorotate dehydrogenase (quinone), mitochondrial (Homo sapiens, UniProt Q02127); assay: as §1
Chain of Dihydroorotate dehydrogenase (quinone), mitochondrial (Q02127 whole entry): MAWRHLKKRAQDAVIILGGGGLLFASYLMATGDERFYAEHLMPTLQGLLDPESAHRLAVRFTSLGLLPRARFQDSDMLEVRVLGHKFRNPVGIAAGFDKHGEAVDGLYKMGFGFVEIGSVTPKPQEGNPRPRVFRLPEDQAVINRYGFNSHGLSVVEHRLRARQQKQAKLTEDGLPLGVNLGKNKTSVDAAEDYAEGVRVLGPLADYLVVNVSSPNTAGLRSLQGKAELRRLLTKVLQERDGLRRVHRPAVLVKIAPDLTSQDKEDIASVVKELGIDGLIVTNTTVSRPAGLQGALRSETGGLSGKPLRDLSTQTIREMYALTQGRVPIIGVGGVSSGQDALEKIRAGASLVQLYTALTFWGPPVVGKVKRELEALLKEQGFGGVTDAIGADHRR

[3] = molecular target: T2, Dihydroorotate dehydrogenase (fumarate) (Saccharomyces cerevisiae S288c, UniProt P28272); assay: as §1
T2 sequence (P28272 whole entry): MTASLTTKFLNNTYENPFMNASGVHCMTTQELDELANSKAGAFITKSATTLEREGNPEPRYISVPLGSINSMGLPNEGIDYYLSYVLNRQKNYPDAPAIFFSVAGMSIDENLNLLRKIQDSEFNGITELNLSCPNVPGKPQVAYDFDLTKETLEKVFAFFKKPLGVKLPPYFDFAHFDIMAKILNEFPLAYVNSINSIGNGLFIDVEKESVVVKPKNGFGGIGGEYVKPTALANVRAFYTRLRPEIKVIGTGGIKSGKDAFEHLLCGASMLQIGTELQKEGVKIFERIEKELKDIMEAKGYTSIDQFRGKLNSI

Compound | IC50 [1] | IC50 [2] | IC50 [3]
Cc1ccccc1/C=C/c1cc(O)c2ccccc2n1 | 5.6 µM |  | 
CCCNC(=O)c1ccc(N2CCN(C)CC2)s1 |  | > 30 µM | 
CCCCCC1CCCc2c1nc1ccccc1c2O (configuration not stated) |  |  | > 10 µM
Fc1cc(I)ccc1Nc1ccnc2cc(Cl)ccc12 | > 10 µM | > 30 µM | > 10 µM
CCOC(=O)c1[nH]c(C)c(Cc2ccc(OCC)cc2)c1C |  |  | > 10 µM
